In patent publication US20230203060A1 (GENFLEET THERAPEUTICS (SHANGHAI) INC., priority 2020, published 2023):

Columns and labels:
[1] = system: KRAS G12C mutant NCI-H358 cells; test: Cell proliferation inhibition experiment, 3D spheroid, CellTiter-Glo, NCI-H358; format: cell-based, human; settings: Homo sapiens, NCI-H358, 120 h, NCI-H358 (KRAS G12C mutant) 3D spheroid, 5 days with compound, CellTiter-Glo; read-out: H358 IC50
Method in brief: (§1)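 CellTiter-Glo luminescence after 5 days' compound treatment (3.16-fold series, 0.1% DMSO) of overnight-formed spheroids in 2% FBS medium: H358 seeded at 800 cells/well in RPMI-1640, A549 at 400 cells/well in F-12K. IC50 derived by four-parameter fit of inhibition normalized to DMSO control and blank.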

[2] = system: A549 cells (KRAS G12S mutant); test: Cell proliferation inhibition experiment, 3D spheroid, CellTiter-Glo, A549; format: cell-based, human; settings: Homo sapiens, A549, 120 h, A549 (KRAS G12S mutant) 3D spheroid, 5 days with compound, CellTiter-Glo; read-out: A549 IC50
Method in brief: as §1

Which results are given for C=CC(=O)N1CCN2C(=O)c3c(N4C[C@@H](N(C)C)C[C@@H]4C)nc(-c4c(O)cccc4F)c(Cl)c3OC[C@H]2C1 [Z237-2, (6aR)-8-acryloyl-4-chloro-1-((2S,4S)-4-(dimethylamino)-2-methylpyrrolidin-1-yl)-3-(2-fluoro-6-hydroxyphenyl)-6,6a,7,8,9,10-hexahydro-12H-pyrazino[2,1-c]pyrido[3,4-f][1,4]oxazepin-12-one]?
IC50 [1]: 6 nM; IC50 [2]: 5.53 µM

Which IC50 [1] does the source give for C=CC(=O)N1CCN2C(=O)c3c(N4CCN(C)C[C@@H]4C)nc(-c4nc(N)cc(C)c4C(F)(F)F)c(Cl)c3OC[C@H]2C1 [Z328-1, (R)-8-acryloyl-3-(6-amino-4-methyl-3-(trifluoromethyl)pyridin-2-yl)-4-chloro-1-((S)-2,4-dimethylpiperazin-1-yl)-6,6a,7,8,9,10-hexahydro-12H-pyrazino[2,1-c]pyrido[3,4-f][1,4]oxazepin-12-one] here?
The IC50 was 2.2 nM.

What about the IC50 [2] of the same compound?
Its IC50 is 16.1 µM.

For C=CC(=O)N1CCN2C(=O)c3c(N4CCN(C(=O)C5CC5)C[C@@H]4C)nc(-c4c(O)cccc4F)c(Cl)c3OC[C@H]2C1 [Z320-1, (6aR)-8-acryloyl-4-chloro-1-((S)-4-(cyclopropanecarbonyl)-2-methylpiperazin-1-yl)-3-(2-fluoro-6-hydroxyphenyl)-6,6a,7,8,9,10-hexahydro-12H-pyrazino[2,1-c]pyrido[3,4-f][1,4]oxazepin-12-one], which IC50 [1] is on record?
The IC50 was 1.3 nM.

What about the IC50 [2] of the same compound?
The IC50 was 8.92 µM.

Which results are given for C=CC(=O)N1CCN2C(=O)c3c(N4C[C@H](O)CC4(C)C)nc(-c4ccccc4F)c(Cl)c3OC[C@H]2C1 (single isomer, unassigned) [Z325-2]?
IC50 [1]: 6.1 nM; IC50 [2]: > 30 µM

With C=CC(=O)N1CCN2C(=O)c3c(N4C[C@@](C)(O)CC4(C)C)nc(-c4c(O)cccc4F)c(F)c3OC[C@H]2C1 (single isomer, unassigned) [Z256b-1] as the compound, how does the IC50 [1] read?
The IC50 was 2.8 nM.

And the IC50 [2]?
The IC50 was 10.2 µM.

Which IC50 [1] does the source give for C=CC(=O)N1CCN2C(=O)c3c(N4CC[C@@H](OC)[C@@H]4C)nc(-c4c(O)cccc4F)c(Cl)c3OC[C@H]2C1 [Z338-1, (6aR)-8-acryloyl-4-chloro-3-(2-fluoro-6-hydroxyphenyl)-1-((2S,3R)-3-methoxy-2-methylpyrrolidin-1-yl)-6,6a,7,8,9,10-hexahydro-12H-pyrazino[2,1-c]pyrido[3,4-f][1,4]oxazepin-12-one] here?
Its IC50 is 6 nM.

What about the IC50 [2] of the same compound?
Its IC50 is 12.3 µM.

With C=CC(=O)N1CCN2C(=O)c3c(N4CCN(C)C[C@@H]4C)nc(-c4c(F)ccc(F)c4O)c(Cl)c3OC[C@H]2C1 [Z356, (6aR)-8-acryloyl-4-chloro-3-(3,6-difluoro-2-hydroxyphenyl)-1-((S)-2,4-dimethylpiperazin-1-yl)-6,6a,7,8,9,10-hexahydro-12H-pyrazino[2,1-c]pyrido[3,4-f][1,4]oxazepin-12-one] as the compound, how does the IC50 [1] read?
Its IC50 is 20 nM.

And the IC50 [2]?
Its IC50 is 28.3 µM.

With C=CC(=O)N1CCN2C(=O)c3c(N4CC[C@H](OC)C4(C)C)nc(-c4c(O)cccc4F)c(F)c3OC[C@H]2C1 (single isomer, unassigned) [Z327-2] as the compound, how does the IC50 [1] read?
The IC50 was 8.4 nM.

What about the IC50 [2] of the same compound?
The IC50 was 9.51 µM.

Which results are given for C=CC(=O)N1CCN2C(=O)c3c(N4Cc5nn(C)cc5[C@@H]4C)nc(-c4c(O)cccc4F)c(Cl)c3OC[C@H]2C1 (single isomer, unassigned) [Z345-2]?
IC50 [1]: 11.8 nM; IC50 [2]: 9.4 µM

For C=CC(=O)N1CCN2C(=O)c3c(N4C[C@@H](OC)CC4(C)C)nc(-c4c(O)cccc4F)c(F)c3OC[C@H]2C1 (single isomer, unassigned) [Z256a-1], which IC50 [1] is on record?
The IC50 was 3.4 nM.

What about the IC50 [2] of the same compound?
The IC50 was 9.16 µM.

Which results are given for C=CC(=O)N1CCN2C(=O)c3c(N4Cc5cn(C)nc5C4C)nc(-c4c(O)cccc4F)c(Cl)c3OC[C@H]2C1 (stereo partly drawn) [Z291-2]?
IC50 [1]: 3.5 nM; IC50 [2]: 9.69 µM

For C=CC(=O)N1CCN2C(=O)c3c(N4C[C@@H](O)CC4(C)C)nc(-c4c(O)cccc4F)c(F)c3OC[C@H]2C1 (single isomer, unassigned) [Z256-1], which IC50 [1] is on record?
The IC50 was 2.2 nM.

What about the IC50 [2] of the same compound?
The IC50 was 12.1 µM.
